From patent US20240270762A1, “PENICILLIN-BINDING PROTEIN INHIBITORS” (priority 2021, published 2024)
Converted amounts (≈) assume the structure as drawn.

Columns and labels:
A. baumannii CDC-0083 = experiment: microbe, parasite or virus in culture; assay type: cell-based; details: Acinetobacter baumannii, CDC0083, read-out: MIC, A. baumannii CDC-0083
A. baumannii PBP1a = target: T1, A. baumannii PBP1a (Acinetobacter baumannii, UniProt A0ABX6CK30); experiment: Bocillin-FL competition binding via gel filtration, A. baumannii PBP1a; details: competition binding assay using Bocillin-FL via gel filtration; read-out: A. baumannii PBP1a Potency
T1 sequence (A0ABX6CK30 1-851): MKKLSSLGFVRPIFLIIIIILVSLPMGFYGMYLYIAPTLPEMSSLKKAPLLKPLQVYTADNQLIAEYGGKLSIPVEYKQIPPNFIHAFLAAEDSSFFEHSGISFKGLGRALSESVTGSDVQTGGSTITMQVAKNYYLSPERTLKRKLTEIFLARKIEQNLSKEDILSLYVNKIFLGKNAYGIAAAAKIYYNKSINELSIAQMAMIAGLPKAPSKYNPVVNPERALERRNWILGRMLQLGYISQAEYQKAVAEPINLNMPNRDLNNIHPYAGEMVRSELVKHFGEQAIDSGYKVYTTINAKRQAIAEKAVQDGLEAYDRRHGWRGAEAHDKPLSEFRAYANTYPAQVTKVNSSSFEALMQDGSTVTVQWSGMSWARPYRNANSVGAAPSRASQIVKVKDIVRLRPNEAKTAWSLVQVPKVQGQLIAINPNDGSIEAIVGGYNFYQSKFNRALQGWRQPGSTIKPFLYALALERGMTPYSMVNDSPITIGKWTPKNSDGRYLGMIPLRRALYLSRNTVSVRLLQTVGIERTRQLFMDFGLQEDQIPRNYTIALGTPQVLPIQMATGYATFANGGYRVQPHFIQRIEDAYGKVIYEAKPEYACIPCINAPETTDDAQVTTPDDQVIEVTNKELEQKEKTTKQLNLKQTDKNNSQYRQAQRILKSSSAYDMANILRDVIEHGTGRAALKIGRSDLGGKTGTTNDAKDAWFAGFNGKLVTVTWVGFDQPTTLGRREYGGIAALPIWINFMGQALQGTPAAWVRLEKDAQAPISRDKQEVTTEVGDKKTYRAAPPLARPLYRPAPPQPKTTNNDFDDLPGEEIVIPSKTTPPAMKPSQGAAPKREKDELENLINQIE
Method in brief: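 Enzyme was pre-incubated with rising inhibitor concentrations, then Bocillin-FL was added and incubated 15 minutes more. Bound probe was separated by gel filtration and fluorescence read. EC50 came from fitting fraction of PBP labelled versus inhibitor concentration to a Hill equation with ymin, ymax and n.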

Structure (SMILES) | MIC (A. baumannii CDC-0083) [µg/mL] | EC50 (A. baumannii PBP1a) [µM]
O=C(NCCCS(=O)(=O)N1CCN(C(=O)NC(C(=O)N[C@H]2Cc3ccc(F)c(C(=O)O)c3OB2O)c2cc(F)c(O)c(O)c2Cl)C1=O)Nc1ccc(O)cc1 (stereo partly drawn) [Example 276, (3R)-3-(2-(2-chloro-5-fluoro-3,4-dihydroxyphenyl)-2-(3-((3-(3-(4-hydroxyphenyl)ureido)propyl)sulfonyl)-2-oxoimidazolidine-1-carboxamido)acetamido)-7-fluoro-2-hydroxy-3,4-dihydro-2H-benzo[e][1,2]oxaborinine-8-carboxylic acid] | < 1 | < 10
O=C(NCCCS(=O)(=O)N1CCN(C(=O)NC(C(=O)N[C@H]2Cc3ccc(F)c(C(=O)O)c3OB2O)c2cc(F)c(O)c(O)c2Cl)C1=O)c1nccs1 (stereo partly drawn) [Example 274, (3R)-3-(2-(2-chloro-5-fluoro-3,4-dihydroxyphenyl)-2-(2-oxo-3-((3-(thiazole-2-carboxamido)propyl)sulfonyl)imidazolidine-1-carboxamido)acetamido)-7-fluoro-2-hydroxy-3,4-dihydro-2H-benzo[e][1,2]oxaborinine-8-carboxylic acid] | < 1 | < 10
O=C(NCCN1CCN(C(=O)NC(C(=O)N[C@H]2Cc3ccc(F)c(C(=O)O)c3OB2O)c2cc(F)c(O)c(O)c2Cl)C1=O)c1cccc(O)c1 (stereo partly drawn) [Example 244, (3R)-3-(2-(2-chloro-5-fluoro-3,4-dihydroxyphenyl)-2-(3-(2-(3-hydroxybenzamido)ethyl)-2-oxoimidazolidine-1-carboxamido)acetamido)-7-fluoro-2-hydroxy-3,4-dihydro-2H-benzo[e][1,2]oxaborinine-8-carboxylic acid] | < 1 | 10 to 50
O=C(NCCN1CCN(C(=O)NC(C(=O)N[C@H]2Cc3ccc(F)c(C(=O)O)c3OB2O)c2cc(F)c(O)c(O)c2Cl)C1=O)c1ccc(O)cc1 (stereo partly drawn) [Example 243, (3R)-3-(2-(2-chloro-5-fluoro-3,4-dihydroxyphenyl)-2-(3-(2-(4-hydroxybenzamido)ethyl)-2-oxoimidazolidine-1-carboxamido)acetamido)-7-fluoro-2-hydroxy-3,4-dihydro-2H-benzo[e][1,2]oxaborinine-8-carboxylic acid] | < 1 | 10 to 50
O=C(CN1CCN(C(=O)NC(C(=O)N[C@H]2Cc3ccc(F)c(C(=O)O)c3OB2O)c2cc(F)c(O)c(O)c2Cl)C(=O)C1=O)Nc1ccc(O)cc1 (stereo partly drawn) [Example 230, (3R)-3-(2-(2-chloro-5-fluoro-3,4-dihydroxyphenyl)-2-(4-(2-((4-hydroxyphenyl)amino)-2-oxoethyl)-2,3-dioxopiperazine-1-carboxamido)acetamido)-7-fluoro-2-hydroxy-3,4-dihydro-2H-benzo[e][1,2]oxaborinine-8-carboxylic acid] | < 1 | 10 to 50
CN(CCN1CCN(C(=O)N[C@@H](C(=O)N[C@H]2Cc3ccc(F)c(C(=O)O)c3OB2O)c2cc(F)c(O)c(O)c2Cl)C(=O)C1=O)Cc1cccnc1 [Example 201, (R)-3-((R)-2-(2-chloro-5-fluoro-3,4-dihydroxyphenyl)-2-(4-(2-(methyl(pyridin-3-ylmethyl)amino)ethyl)-2,3-dioxopiperazine-1-carboxamido)acetamido)-7-fluoro-2-hydroxy-3,4-dihydro-2H-benzo[e][1,2]oxaborinine-8-carboxylic acid] | < 1 | 10 to 50
O=C(NCCN1CCN(C(=O)NC(C(=O)N[C@H]2Cc3ccc(F)c(C(=O)O)c3OB2O)c2cc(F)c(O)c(O)c2Cl)C(=O)C1=O)c1ccccc1 (stereo partly drawn) [Example 207, (3R)-3-(2-(4-(2-benzamidoethyl)-2,3-dioxopiperazine-1-carboxamido)-2-(2-chloro-5-fluoro-3,4-dihydroxyphenyl)acetamido)-7-fluoro-2-hydroxy-3,4-dihydro-2H-benzo[e][1,2]oxaborinine-8-carboxylic acid] | 2 to 4 (≈ 2.74 to 5.48 µM) | 10 to 50
O=C(CN1CCN(C(=O)NC(C(=O)N[C@H]2Cc3ccc(F)c(C(=O)O)c3OB2O)c2cc(F)c(O)c(O)c2Cl)C(=O)C1=O)Nc1cccnc1 (stereo partly drawn) [Example 234, (3R)-3-(2-(2-chloro-5-fluoro-3,4-dihydroxyphenyl)-2-(2,3-dioxo-4-(2-oxo-2-(pyridin-3-ylamino)ethyl)piperazine-1-carboxamido)acetamido)-7-fluoro-2-hydroxy-3,4-dihydro-2H-benzo[e][1,2]oxaborinine-8-carboxylic acid] | < 1 | –
O=C(NCCCN1CCN(C(=O)N[C@H](C(=O)N[C@H]2Cc3ccc(F)c(C(=O)O)c3OB2O)c2cc(F)c(O)c(O)c2Cl)C1=O)c1cccc(O)c1 [Example 254, (R)-3-((S)-2-(2-chloro-5-fluoro-3,4-dihydroxyphenyl)-2-(3-(3-(3-hydroxybenzamido)propyl)-2-oxoimidazolidine-1-carboxamido)acetamido)-7-fluoro-2-hydroxy-3,4-dihydro-2H-benzo[e][1,2]oxaborinine-8-carboxylic acid] | > 128 | –
O=C(NCCN1CCN(C(=O)NC(C(=O)N[C@H]2Cc3ccc(F)c(C(=O)O)c3OB2O)c2cc(F)c(O)c(O)c2Cl)C1=O)c1cccnc1 (stereo partly drawn) [Example 246, (3R)-3-(2-(2-chloro-5-fluoro-3,4-dihydroxyphenyl)-2-(3-(2-(nicotinamido)ethyl)-2-oxoimidazolidine-1-carboxamido)acetamido)-7-fluoro-2-hydroxy-3,4-dihydro-2H-benzo[e][1,2]oxaborinine-8-carboxylic acid] | < 1 | –
O=C(CN1CCN(C(=O)NC(C(=O)N[C@H]2Cc3ccc(F)c(C(=O)O)c3OB2O)c2cc(F)c(O)c(O)c2Cl)C(=O)C1=O)Nc1nccs1 (stereo partly drawn) [Example 235, (3R)-3-(2-(2-chloro-5-fluoro-3,4-dihydroxyphenyl)-2-(2,3-dioxo-4-(2-oxo-2-(thiazol-2-ylamino)ethyl)piperazine-1-carboxamido)acetamido)-7-fluoro-2-hydroxy-3,4-dihydro-2H-benzo[e][1,2]oxaborinine-8-carboxylic acid] | < 1 | –
O=C(NCCCS(=O)(=O)N1CCN(C(=O)NC(C(=O)N[C@H]2Cc3ccc(F)c(C(=O)O)c3OB2O)c2cc(F)c(O)c(O)c2Cl)C1=O)c1ccncc1 (stereo partly drawn) [Example 272, (3R)-3-(2-(2-chloro-5-fluoro-3,4-dihydroxyphenyl)-2-(3-((3-(isonicotinamido)propyl)sulfonyl)-2-oxoimidazolidine-1-carboxamido)acetamido)-7-fluoro-2-hydroxy-3,4-dihydro-2H-benzo[e][1,2]oxaborinine-8-carboxylic acid] | < 1 | 10 to 50
O=C(CN1CCN(C(=O)N[C@@H](C(=O)N[C@H]2Cc3ccc(F)c(C(=O)O)c3OB2O)c2cc(F)c(O)c(O)c2Cl)C(=O)C1=O)NCc1nccs1 [Example 241, (R)-3-((R)-2-(2-chloro-5-fluoro-3,4-dihydroxyphenyl)-2-(2,3-dioxo-4-(2-oxo-2-((thiazol-2-ylmethyl)amino)ethyl)piperazine-1-carboxamido)acetamido)-7-fluoro-2-hydroxy-3,4-dihydro-2H-benzo[e][1,2]oxaborinine-8-carboxylic acid] | > 128 | –
O=C(NCCN1CCN(C(=O)NC(C(=O)N[C@H]2Cc3ccc(F)c(C(=O)O)c3OB2O)c2cc(F)c(O)c(O)c2Cl)C(=O)C1=O)c1nccs1 (stereo partly drawn) [Example 218, (3R)-3-(2-(2-chloro-5-fluoro-3,4-dihydroxyphenyl)-2-(2,3-dioxo-4-(2-(thiazole-2-carboxamido)ethyl)piperazine-1-carboxamido)acetamido)-7-fluoro-2-hydroxy-3,4-dihydro-2H-benzo[e][1,2]oxaborinine-8-carboxylic acid] | 8 to 16 (≈ 10.9 to 21.7 µM) | –
O=C(CN1CCN(C(=O)NC(C(=O)N[C@H]2Cc3ccc(F)c(C(=O)O)c3OB2O)c2cc(F)c(O)c(O)c2Cl)C(=O)C1=O)NCc1ccc(O)cc1 (stereo partly drawn) [Example 236, (3R)-3-(2-(2-chloro-5-fluoro-3,4-dihydroxyphenyl)-2-(4-(2-((4-hydroxybenzyl)amino)-2-oxoethyl)-2,3-dioxopiperazine-1-carboxamido)acetamido)-7-fluoro-2-hydroxy-3,4-dihydro-2H-benzo[e][1,2]oxaborinine-8-carboxylic acid] | > 128 | –
O=C(NCCS(=O)(=O)N1CCN(C(=O)N[C@H](C(=O)N[C@H]2Cc3ccc(F)c(C(=O)O)c3OB2O)c2cc(F)c(O)c(O)c2Cl)C1=O)c1nccs1 [Example 263, (R)-3-((S)-2-(2-chloro-5-fluoro-3,4-dihydroxyphenyl)-2-(2-oxo-3-((2-(thiazole-2-carboxamido)ethyl)sulfonyl)imidazolidine-1-carboxamido)acetamido)-7-fluoro-2-hydroxy-3,4-dihydro-2H-benzo[e][1,2]oxaborinine-8-carboxylic acid] | 2 to 4 (≈ 2.59 to 5.18 µM) | –
